Assay results as given in US20230053688A1, “METHODS TO ALTER LATENCY IN EBV+ MALIGNANCIES” (Cornell University, priority 2020, published 2023).

What was measured:
[1] = tested on: LMP1 and Cp transcripts in Kem I, Mutu I, and Rael cell lines; format: cell-based, EBV
[2] = tested on: EBNA2 and LMP1 in Mutu I cells; assay: Immunohistochemistry on cell blocks with HALO quantification; format: cell-based, EBV; conditions: decitabine at 500 nM, 48 hours
Procedure: (§1) Cell blocks were generated from cell lines in suspension by fixation in 10% formalin. Immunohistochemistry on cell blocks and mouse tumors was performed with the following antibodies: EBNA2 (abcam #ab90543), LMP1 (Dako #M0897), BZLF1 (Santa Cruz #SC-53904), CD8 (Leica #PA0183), PD-1 (Dako #M3653), PD-L1 (Cell Marque #315M-98). The Halo® image analysis software program (Indica Labs) was used to quantify immunohistochemical stains.
(§2) Next it was determined the percentage of cells that convert to expressing latency […] antigens after treatment with decitabine or 5-azacytadine. To do this, EBV antigen expression at the single-cell level was evaluated by immunohistochemistry (IHC) from cell blocks. Cells were treated with 5-azacytidine, decitabine, or vehicle control. Cell blocks were then evaluated by IHC for LMP1 and EBNA2. The percentage of positive cells was quantified with HALO image analysis. […] 5-azacytidine induced a more modest expression of EBNA2 and LMP1 across the three cell lines (FIGS. 2E-F). Based on these observations, decitabine was further investigated as a potential agent to induce expression of immunogenic viral antigens in latency I tumors.

[3] = tested on: EBNA2 and LMP1 in Rael cells; assay: as above; format: cell-based, EBV; conditions: decitabine at 500 nM, 48 hours
Procedure: as §1, §2

[4] = tested on: EBNA2 and LMP1 in Kem I cells; assay: as above; format: cell-based, EBV; conditions: decitabine at 500 nM, 48 hours
Procedure: as §1, §2

[5] = tested on: EBV genome in Kem I, Rael, and Mutu I cells; assay: Quantitative DNA methylation analysis using MassARRAY EpiTYPER; format: cell-based; conditions: 48 hours, all three latency I cell lines, including Cp promoter and LMP1/2 loci
Rael xenografts = assay: BL xenograft, immunohistochemistry of tumors for viral antigens; format: in vivo, mice
Procedure: as §1
(§3) To evaluate the effect of decitabine on viral antigen expression in-vivo, we generated Mutu I, Kem I, and Rael xenografts. Upon engraftment, mice were treated with a 7-day course of decitabine (0.5 mg/kg or 1 mg/kg daily) or vehicle control. After treatment tumors were evaluated by immunohistochemistry. Vehicle treated mice had minimal or no expression of EBNA2 and LMP1 (FIGS. 3A-B). […] LMP1 expression was increased in Kem xenografts (p=0.04, FIG. 3B).
If induction of immunogenic antigens were to be used as therapeutic approach in EBV+ lymphomas, it would be important to ensure that the induction persists after removal of drug to allow time for an adequate T-cell response. The durability of latency III induction was evaluated by treating cell lines with 250 nM of decitabine for 3 days and then evaluating LMP1 and Cp promoter expression after washout of the drug. […] Rael xenografts were also evaluated for durability of induction in-vivo. […] Mice observed at later timepoints continued to express EBNA2 with some areas of tumor remaining EBNA2 positive as late as 63 days post-treatment (FIG. 4C).
In addition to modulating latent gene expression, 5-azacytidine is known to activate lytic programming in EBV (Bhende, Seaman et al. 2004, Chan, Tao et al. 2004, Bergbauer, Kalla et al. 2010, Kalla, Gobel et al. 2012, Woellmer, Arteaga-Salas et al. 2012).

in vitro [6] = conditions: human, Rael cells
Procedure: (§5) Cell viability was determined using CellTiter-Glo (Promega) and the GloMax® Multi+ detection system (Promega).
(§6) Cell viability was determined using an ATP based luminescent assay (CellTiter-Glo, Promega) and the GloMax® Multi+ detection system (Promega). IC50 values were calculated using Prism 6 software.
(§7) To determine if induction of LMP1 and EBNA3 were linked to hypomethylating agent-induced cell death, cells were exposed to decitabine or 5-azacytadine over a range of doses and cell viability evaluated with the ATP-based Cell Titer-Glo® assay.

[7] = tested on: LMP1 and EBNA3C proteins in BL cells; assay: Immunoblot for viral proteins in BL cells; format: cell-based, EBV; conditions: 48 hours
Procedure: Immunoblot was performed with the standard procedure using the following antibodies: β-actin (GeneTex), BZLF1 (Santa Cruz), EBNA1 (Santa Cruz), EBNA2 (AbCam), EBNA3C (gift from Benjamin Gewurz), GAPDH (GeneTex), and LMP1 (AbCam).
Since decitabine and 5-azacytadine were the top hits on the epigenetic screen, the effect of these agents on latency II/III transcript and protein expression was investigated as well as the dose-response in a panel of BL cell lines. BL cells were treated with decitabine or 5-azacytidine over a range of doses. Viral antigen expression was evaluated by qRT-PCR, immunoblot, and immunohistochemistry. […] This was associated with upregulation of LMP1 and EBNA3C proteins (FIG. 2B).

[8] = tested on: BZLF1 in Rael, Mutu I, and Kem I cells; assay: qRT-PCR for BZLF1 (lytic induction); format: cell-based, EBV; conditions: all three cell lines
Mutu I cells = assay: Cr51 release assay with EBV-CTLs; format: cell-based; conditions: Mutu I cells treated at 250 nM for 72 hours, 25:1 effector to target ratio
[9] = tested on: subcutaneous xenografts of Rael cells; format: in vivo, NSG mice
Rael = assay: Cell viability, CellTiter-Glo; conditions: read-out: 48 Hour IC50
Procedure: as §5, §6, §7

Rael cells = assay: Cr51 release assay with EBV-CTLs; format: cell-based; conditions: Rael cells treated at 250 nM for 72 hours, 25:1 effector to target ratio
Kem I xenografts = assay: BL xenograft, immunohistochemistry of tumors for viral antigens; format: in vivo, mice
Procedure: as §1, §3
(§4) In addition to modulating latent gene expression, 5-azacytidine is known to activate lytic programming in EBV (Bhende, Seaman et al. 2004, Chan, Tao et al. 2004, Bergbauer, Kalla et al. 2010, Kalla, Gobel et al. 2012, Woellmer, Arteaga-Salas et al. 2012). Upon exposure to 5-azacytidine, the Rael cell line generates lytic and latent antigens but in distinct cell populations (Masucci, Contreras-Salazar et al. 1989). To determine if the lytic program was being activated after exposure to decitabine qRT-PCR was performed for BZLF1, the gene responsible for activating early lytic genes in Rael, Mutu I, and Kem I cells. […] In the xenograft models, BLZF1 was evaluated by IHC.

Mutu I xenografts = assay: as above; format: in vivo, mice
Procedure: as §1, §3, §4

Mutu I = assay: Cell viability, CellTiter-Glo; conditions: read-out: 48 Hour IC50
Procedure: as §5, §6, §7

in vitro [10] = conditions: human, Mutu I cells
Procedure: as §5, §6, §7

BL cells = assay: Cell viability, CellTiter-Glo, statements for the BL cell panel
Procedure: as §5, §6, §7

[11] = tested on: first 13 kB of the EBV genome in Kem I, Rael, and Mutu I cells; assay: Methyl-Capture sequencing of cell lines; format: cell-based
Kem I = assay: Cell viability, CellTiter-Glo; conditions: 48 h, read-out: 48 Hour IC50
Procedure: as §5, §6, §7

[12] = Cell viability, CellTiter-Glo; conditions: human, Kem I cells
Procedure: as §5, §6, §7

## Nc1ncn([C@H]2C[C@H](O)[C@@H](CO)O2)c(=O)n1 [decitabine, 5-aza-2′-deoxycytidine]
[1]; 250 nM for 3 days, then 1, 3, 5, and 7 days after washout
  LMP1 and Cp expression by qRT-PCR after washout: persists with minimal decrement
[1]; BL cells, 48 hours of treatment
  lowest dose with dose dependent induction of LMP1 and Cp transcripts: 25 nM
[2]
  percentage of EBNA2 positive cells: 28.3%
  percentage of LMP1 positive cells: 41.8%
[3]
  percentage of EBNA2 positive cells: 37.2%
  percentage of LMP1 positive cells: 27.4%
[4]
  percentage of EBNA2 positive cells: 57.8%
  percentage of LMP1 positive cells: 54.9%
[5]
  DNA methylation across the EBV viral genome (MassARRAY): loss of methylation
Rael xenografts; 7-day course, 0.5 mg/kg or 1 mg/kg daily IP, p=0.017
  EBNA2 expression in tumors (IHC): upregulation was observed
Rael xenografts; Rael xenograft, 7 days of treatment
  BZLF1 by IHC in tumors: minimal or no induction
Rael xenografts; post-treatment
  latest time with areas of tumor remaining EBNA2 positive: 63 days
Rael xenografts; tumors evaluated 4 days after a 7-day course
  percentage of EBNA2 positive cells after discontinuation of drug: persistent induction with no decrement
In vitro [6]
  viability: 102%
[7]
  LMP1 and EBNA3C proteins (immunoblot): upregulation
[8]
  BZLF1 (qRT-PCR) over time after removal of drug: decreased over time after removal of drug
[8]; after exposure for 72 hours
  BZLF1 (qRT-PCR): increase
Mutu I cells
  % lysis by EBNA3A reactive EBV-CTLs: 16.17%
  % lysis by LMP1-reactive EBV-CTLs: 74.11%
[9]; daily for 7 days, 1 mg/kg
  latent antigens EBNA2 and LMP1 in tumors: induction
  lytic protein BZLF1 in tumors: minimal change
[9]; mouse, in vivo
  PD-L1 expression in tumors: did not increase
Rael
  IC50: > 5 µM
Rael cells
  % lysis by EBNA3C reactive EBV-CTLs: 26.07%
Kem I xenografts; 7-day course, 0.5 mg/kg or 1 mg/kg daily IP, p=0.04
  LMP1 expression in tumors (IHC): increased
Kem I xenografts; Kem I xenograft, 7 days of treatment
  BZLF1 by IHC in tumors: minimal or no induction
Mutu I xenografts; 7-day course, 0.5 mg/kg or 1 mg/kg daily IP, p=0.044
  EBNA2 expression in tumors (IHC): upregulation was observed
Mutu I xenografts; Mutu I xenograft, 7 days of treatment
  BZLF1 by IHC in tumors: induction was observed
Mutu I
  IC50: > 5 µM
In vitro [10]
  viability: 62%
BL cells
  IC50: > 5 µM
[11]; after treatment, all three cell lines
  methylation across the covered areas (Methyl-Capture sequencing): global hypomethylation
[11]; drug 48 hours followed by 7-day washout
  methylation after removal of drug (Methyl-Capture sequencing): remained hypomethylated
Kem I
  IC50: > 5 µM
[12]
  viability: 128%
